Reference: US20230373934A1, “ANDROGEN RECEPTOR MODULATORS AND METHODS FOR THEIR USE” (ESSA Pharma, Inc., priority 2022, published 2023)

How the values were obtained:
[1] = Microsomal stability assay, liver microsome half-life (human); assay type: in vitro ADME; conditions: pH 7.4; human liver microsomes 0.5 mg/mL + NADPH, 1 μM compound, 37° C; read-out: Liver microsome + NADPH T½ (min) Human
Text: (§1) Microsomal Stability Assay: Microsomal stability assay is a widely used in vitro model to characterize the metabolic conversion by phase I enzymes, such as cytochrome P450 (CYP) enzymes. Since metabolism is known to be highly variable in different species, microsomal stability assay is commonly run in multiple species. Metabolic stability of testing compound can be evaluated using human, rat, mouse, or other animal liver or intestine microsomes to predict intrinsic clearance.
(§2) The assay was carried out in 96-well microtiter plates at 37° C. Reaction mixtures (25 μL) contained a final concentration of 1 μM test compound, 0.5 mg/mL liver microsomes protein, and 1 mM NADPH and/or 1 mM UDPGA (with alamethicin) in 100 mM potassium phosphate, pH 7.4 buffer with 3 mM MgCl2. The incubation was done with N=1, but duplicate incubation at each time point can be prepared if necessary. At each of the time points (for example, 0, 15, 30, and 60 minutes), 150 μL of quench solution (100% acetonitrile with 0.1% formic acid) with internal standard was transferred to each well. Besides the zero minute controls, mixtures containing the same components except the NADPH can also be prepared as the negative control. Verapamil was included as a positive control to verify assay performance. Plates were sealed, vortexed, and centrifuged at 4° C. for 15 minutes at 4000 rpm. The supernatant is transferred to fresh plates for LC/MS/MS analysis.
(§3) Summarized conditions: [Compound]=1 μM, [LM]=0.5 mg/mL, [NADPH]=1 mM and/or [UDPGA]=1 mM, Buffer=100 mM Potassium Phosphate, pH 7.4 with 3 mM MgCl2, Time=0, 15, 30, and 60 min, and Temperature=37° C.
(§4) All samples were analyzed on LC/MS/MS using an AB Sciex API 4000 instrument, coupled to a Shimadzu LC-20AD LC Pump system. Analytical samples were separated using a Waters Atlantis T3 dC18 reverse phase HPLC column (20 mm×2.1 mm) at a flow rate of 0.5 mL/min. The mobile phase consisted of 0.1% formic acid in water (solvent A) and 0.1% formic acid in 100% acetonitrile (solvent B).
(§5) The extent of metabolism is calculated as the disappearance of the test compound, compared to the 0-min time incubation. Initial rates are calculated for the compound concentration and used to determine half-life (t1/2).

[2] = Microsomal stability assay, liver microsome half-life (mouse); assay type: in vitro ADME; conditions: pH 7.4; mouse liver microsomes 0.5 mg/mL + NADPH, 1 μM compound, 37° C; read-out: Liver microsome + NADPH T½ (min) Mouse
Text: as §1, §2, §3, §4, §5

androgen receptor (AR) = biological target: T1, androgen receptor (AR) (Homo sapiens, UniProt P10275, T878A); test: Androgen-induced PSA-luciferase assay, Luciferase Assay A (LNCaP transiently transfected with PSA (6.1 kb)-luciferase reporter); assay type: cell-based; conditions: LNCaP cells, 1 h pretreatment, R1881 (1 nM) 24 h, read-out: PSA-Luc IC50 Range
T1 construct: endogenous in cells; host or cells: LNCaP
T1 sequence (P10275 1-920 T878A): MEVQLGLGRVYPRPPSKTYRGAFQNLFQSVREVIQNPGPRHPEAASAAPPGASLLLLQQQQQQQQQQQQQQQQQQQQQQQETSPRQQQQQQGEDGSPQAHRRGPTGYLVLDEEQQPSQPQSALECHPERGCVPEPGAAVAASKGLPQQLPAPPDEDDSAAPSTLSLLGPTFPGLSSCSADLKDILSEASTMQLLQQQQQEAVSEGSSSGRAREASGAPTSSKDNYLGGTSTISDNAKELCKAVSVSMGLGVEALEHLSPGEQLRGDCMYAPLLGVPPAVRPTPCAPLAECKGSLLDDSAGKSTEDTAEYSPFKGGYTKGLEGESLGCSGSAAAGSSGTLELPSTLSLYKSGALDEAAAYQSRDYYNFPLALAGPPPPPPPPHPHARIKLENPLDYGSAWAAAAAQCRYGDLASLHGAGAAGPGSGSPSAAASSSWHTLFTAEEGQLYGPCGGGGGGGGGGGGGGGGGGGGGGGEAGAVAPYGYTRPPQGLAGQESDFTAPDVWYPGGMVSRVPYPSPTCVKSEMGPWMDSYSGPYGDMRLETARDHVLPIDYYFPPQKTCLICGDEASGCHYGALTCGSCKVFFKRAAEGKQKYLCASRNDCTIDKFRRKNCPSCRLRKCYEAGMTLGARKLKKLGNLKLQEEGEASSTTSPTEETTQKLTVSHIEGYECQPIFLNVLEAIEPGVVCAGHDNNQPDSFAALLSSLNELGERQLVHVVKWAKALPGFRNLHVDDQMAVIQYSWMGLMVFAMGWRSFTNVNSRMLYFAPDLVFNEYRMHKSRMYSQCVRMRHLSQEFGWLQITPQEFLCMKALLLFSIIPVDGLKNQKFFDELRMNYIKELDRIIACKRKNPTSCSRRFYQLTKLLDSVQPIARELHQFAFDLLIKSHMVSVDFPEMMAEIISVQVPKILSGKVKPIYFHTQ
Summary of the method: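 LNCaP cells transfected 24 h with PSA (6.1 kb)-luciferase reporter, pretreated 1 h with compound, then stimulated 24 h with R1881 (1 nM). Firefly luminescence in lysates normalized to protein content; IC50 from activity relative to R1881-induced vehicle control.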

[3] = Microsomal stability assay, liver microsome half-life (monkey); assay type: in vitro ADME; conditions: pH 7.4; monkey liver microsomes 0.5 mg/mL + NADPH, 1 μM compound, 37° C; read-out: Liver microsome + NADPH T½ (min) Monkey
Text: as §1, §2, §3, §4, §5

[4] = Microsomal stability assay, liver microsome half-life (dog); assay type: in vitro ADME; conditions: pH 7.4; dog liver microsomes 0.5 mg/mL + NADPH, 1 μM compound, 37° C; read-out: Liver microsome + NADPH T½ (min) Dog
Text: as §1, §2, §3, §4, §5

[5] = Microsomal stability assay, liver microsome half-life (rat); assay type: in vitro ADME; conditions: pH 7.4; rat liver microsomes 0.5 mg/mL + NADPH, 1 μM compound, 37° C; read-out: Liver microsome + NADPH T½ (min) Rat
Text: as §1, §2, §3, §4, §5

SMILES	half-life at 1 μM [1]	half-life at 1 μM [2]	IC50 (androgen receptor (AR))	half-life at 1 μM [3]	half-life at 1 μM [4]	half-life at 1 μM [5]
CC(C)(c1ccc(-c2ccc(CNS(C)(=O)=O)nc2)cc1)c1cc(Cl)c(OCCCl)c(C#N)c1 [Compound A1]	> 120 min	> 120 min	500 to 2000 nM	> 120 min	62 min	61 min
CC(C)(c1ccc(-c2ccc(N3CC(NS(C)(=O)=O)C3)nc2)cc1)c1cc(Cl)c(OCCCl)c(C#N)c1 [Compound A11]	58 min	> 120 min	500 to 2000 nM	28 min	> 120 min	103 min
CC(C)(c1ccc(-c2cnn(CCNS(C)(=O)=O)c2)cc1)c1cc(Cl)c(OCCCl)c(C#N)c1 [Compound A12]	82 min	> 120 min	500 to 2000 nM	19 min	> 120 min	72 min
CC(C)(c1ccc(OC[C@H]2C[C@H](NS(C)(=O)=O)C2)cc1)c1cc(Cl)c(OCCCl)c(C#N)c1 [Compound A15, N-((1r,3r)-3-((4-(2-(3-chloro-4-(2-chloroethoxy)-5-cyanophenyl)propan-2-yl)phenoxy)methyl)cyclobutyl)methanesulfonamide]	> 120 min	> 120 min	500 to 2000 nM	> 120 min	> 120 min	> 120 min
CS(=O)(=O)Nc1cnc2cc(-c3ccc(Oc4cc(Cl)c(OCCCl)c(C#N)c4)cc3)ccc2n1 [Compound A16, N-(6-(4-(3-chloro-4-(2-chloroethoxy)-5-cyanophenoxy)phenyl)quinoxalin-2-yl)methanesulfonamide]	> 120 min	> 120 min	500 to 2000 nM	> 120 min	> 120 min	> 120 min
COc1c(Cl)cc(C(C)(C)c2ccc(OCc3ccnc(NS(C)(=O)=O)n3)cc2)cc1C#N [Compound A17, N-(4-((4-(2-(3-chloro-5-cyano-4-methoxyphenyl)propan-2-yl)phenoxy)methyl)pyrimidin-2-yl)methanesulfonamide]	> 120 min	> 120 min	500 to 2000 nM	> 120 min	> 120 min	> 120 min
CS(=O)(=O)Nc1cnc2cc(-c3ccc(N(CC(F)(F)F)c4cc(Cl)c(OCCCl)c(C#N)c4)cc3)ccc2n1 [Compound A22, N-(6-(4-((3-chloro-4-(2-chloroethoxy)-5-cyanophenyl)(2,2,2-trifluoroethyl)amino)phenyl)quinoxalin-2-yl)methanesulfonamide]	> 120 min	> 120 min	500 to 2000 nM	> 120 min	> 120 min	> 120 min
CS(=O)(=O)Nc1ccc2cc(-c3ccc(Oc4cc(Cl)c(OCCCl)c(C#N)c4)cc3)cnc2n1 [Compound A24]	> 120 min	> 120 min	500 to 2000 nM	> 120 min	78 min	> 120 min
CC(C)(C)N(c1ccc(-c2ccc3nc(NS(C)(=O)=O)cnc3c2)cc1)c1cc(Cl)c(OCCCl)c(C#N)c1 [Compound A28]	78 min	> 120 min	500 to 2000 nM	> 120 min	> 120 min	> 120 min
CC(C)(c1ccc(-c2cnc(N3CC(NS(C)(=O)=O)C3)nc2)cc1)c1cc(Cl)c(OCCCl)c(C#N)c1 [Compound A36, N-(1-(5-(4-(2-(3-chloro-4-(2-chloroethoxy)-5-cyanophenyl)propan-2-yl)phenyl)pyrimidin-2-yl)azetidin-3-yl)methanesulfonamide]	> 120 min	> 120 min	< 500 nM	49 min	> 120 min	66 min
CC(C)(c1ccc(-c2cnc(N3CC(NS(C)(=O)=O)C3)cn2)cc1)c1cc(Cl)c(OCCCl)c(C#N)c1 [Compound A37]	> 120 min	> 120 min	< 500 nM	32 min	> 120 min	> 120 min
COc1c(Cl)cc(Oc2ccc(-c3ccc4nc(NS(C)(=O)=O)cnc4c3)cc2)cc1C#N [Compound A43]	> 120 min	> 120 min	< 500 nM	> 120 min	> 120 min	> 120 min
CC(C)(c1ccc(-c2cnn([C@H]3C[C@H](NS(C)(=O)=O)C3)c2)cc1)c1cc(Cl)c(OCCCl)c(C#N)c1 [Compound A44, N-((1r,3r)-3-(4-(4-(2-(3-chloro-4-(2-chloroethoxy)-5-cyanophenyl)propan-2-yl)phenyl)-1H-pyrazol-1-yl)cyclobutyl)methanesulfonamide]	> 120 min	> 120 min	< 500 nM	117 min	> 120 min	112 min
CC(C)(c1ccc(OC2CC3(C2)CN(S(C)(=O)=O)C3)cc1)c1cc(Cl)c(OCCCl)c(C#N)c1 [Compound A72]	> 120 min	> 120 min	500 to 2000 nM	> 120 min	> 120 min	> 120 min
CC(C)(c1ccc(-c2cnn(C34CC(NS(C)(=O)=O)(C3)C4)c2)cc1)c1cc(Cl)c(OCCCl)c(C#N)c1 [Compound A75]	> 120 min	> 120 min	500 to 2000 nM	> 120 min	> 120 min	> 120 min
CS(=O)(=O)Nc1cnc2cc(-c3ccc(Oc4cc(Cl)c(OC5CCC5)c(C#N)c4)cc3)ccc2n1 [Compound A78]	> 120 min	> 120 min	500 to 2000 nM	> 120 min	> 120 min	> 120 min
CNC(=O)c1ccc(N2C(=S)N(c3ccc(C#N)c(C(F)(F)F)c3)C(=O)C2(C)C)cc1F [Enzalutamide, enzalutamide, reference compound]	> 120 min	> 120 min		> 120 min	> 120 min	> 120 min
